Data set [1] concerns OF1 mice. Kind of data set: Maximal electroshock seizure (MES) test. Format: in vivo. The method, then: SAR218645 (30 mg/kg, po) and the reference anticonvulsant agent, diazepam (10 mg/kg), were administered ip to OF1 mice (12–14 g) 30 min prior to test, respectively. An electrical stimulus (60 Hz, 0.8 ms rectangular pulse, 0.4 s duration, 50 mA) was applied to both corneas. The occurrence of tonic extension of the hindlimbs was noted.

In data set [2] the test system is CD-1 mice. Kind of data set: DOI-induced head-twitch behaviors. Format: in vivo. Here is the method:
Male CD-1 mice weighing 25–30 g at the time of testing were used. Animals were brought into the testing area and allowed at least 30 min to acclimatize. The behavior observation was conducted in a wire test chamber measuring 10 cm^3. SAR218645 or the selective 5-HT2A receptor antagonist, volinanserin, was administered po at various times before administration of DOI. DOI was injected ip at a dose of 1 mg/kg. Five minutes later behavioral observation commenced. A trained (blinded) observer continuously watched the mice for 20 min and noted the number of DOI-induced head twitches during this time. The number of head twitches per group was averaged and SAR218645 or volinanserin plus DOI were compared to DOI alone. Three to eight animals per group were used.

Data set [3] deals with human mGluR2 (Homo sapiens, UniProt Q14416). Put plainly: Multispan Allosteric Profiling panel, Ca2+ (Gqi5), control experiment. Particulars: increasing concentrations of SAR218645; Gqi5 cells. Format: cell-based.
Data set [4] addresses T1, human mGluR6 (Homo sapiens, UniProt O15303).
T1 construct: host or cells: HEK293 co-expressing Gqi5
Put plainly: Multispan Allosteric Profiling panel, Ca2+ (Gqi5). It is filed as cell-based.

For data set [5], the target named is T2, rat mGluR2 (Rattus norvegicus, UniProt P31421). Kind of data set: [3H]LY341495 binding to membranes. On the set-up: expressed in transfected cells; host or cells: inducible HEK-293 cell line (membranes). The conditions noted are these: 10 μM SAR218645. Here is the method: Binding assay was adapted from Johnson et al.[29]. […] Addition of 5–10 μg membrane protein initiated the incubation. After 45 min at room temperature, the incubation was terminated by rapid filtration followed by scintillation counting. Ki’s were calculated using 4-parameter curve fitting.

Data set [6] deals with T2, rat mGluR2. Put plainly: Ca2+ mobilization assay, HEK293 cells expressing rat mGluR2/Gα16. (Calcium flux is commonly read through the fluorescence of an indicator in the cells.)
Protocol: Recombinant rat and human mGluR2 receptors were stably expressed in HEK293 Flp-in-T-REx cell lines with Gα16. Receptor and G-protein expression were induced with either tetracycline or doxycycline 20–24 hr before the experiment. Growth medium was replaced with HBSS buffer containing Ca^2+ and Mg^2+, 20 mM HEPES. Calcium mobilization was monitored using Fluo-4 or Calcium-3 dye on a Functional Drug Screening System (FDSS) reader (Hamamatsu Photonics, Hamamatsu City, Japan). Responses were measured as peak fluorescence intensity minus basal fluorescence. EC50 values were calculated using 4-parameter curve fitting.
Data set [7] has as its system Sprague-Dawley rats. Kind of data set: Amphetamine-induced disruption of auditory evoked potentials (AEP). It is filed as in vivo. The text has this: All recordings were made using Spike2 software (Cambridge Electronic Design, Cambridge, UK) running on a Windows PC connected to a 1401 interface (Cambridge Electronic Design, Cambridge, UK). EEG recordings were created by connecting the skull plug to an amplifying head stage (AI 1401, Axon Instruments, Union City, CA, USA), via a 6-channel commutator and cable (Plastics One, Roanoke, VA, USA). The signal was then further amplified with a multichannel amplifier (Cyberamp 380, Axon Instruments, Union City, CA, USA). Auditory stimuli were controlled by the interface via an eight channel power amplifier (SA8, Tucker Davis Technologies, Alachua, FL) connected to a patch panel (PP16, Tucker Davis Technologies), which was connected to speakers located above each cage (TDT Magnetic Speakers, Tucker Davis Technologies). During recording sessions, animals were placed inside standard mouse cages (30 × 15 × 15 cm) and rigged so that the six channel cables could connect with the rest of the apparatus outside of the cage.
Male Sprague-Dawley rats (150–180 g at arrival) were anesthetized with 3% isoflurane and their scalp was shaved and prepared for surgery. An incision was made in the scalp and the skin was retracted to allow direct contact with the skull surface. The skull was cleaned with a dry Q-tip and five holes were drilled through the skull. Three holes were drilled at coordinates AP + 1 mm, ML + 1 mm (reference); AP−4 mm, ML ± 4 mm (leads 1 and 2) relative to bregma, while an additional hole was drilled in the frontal area (ground) and another hole was drilled at the midpoint between the anterior and posterior coordinate (anchor). […]
AEP data analysis: Data were collected and analyzed using Spike2 software (CED Software, Cambridge, UK). […] Then a horizontal cursor was placed at the highest and lowest (peak and trough) point of the P1/N1 wave, for both the wave occurring to the first tone (S1) and to the second tone (S2), and the value was recorded into an Excel spreadsheet. […]

T2 sequence (P31421 19-872): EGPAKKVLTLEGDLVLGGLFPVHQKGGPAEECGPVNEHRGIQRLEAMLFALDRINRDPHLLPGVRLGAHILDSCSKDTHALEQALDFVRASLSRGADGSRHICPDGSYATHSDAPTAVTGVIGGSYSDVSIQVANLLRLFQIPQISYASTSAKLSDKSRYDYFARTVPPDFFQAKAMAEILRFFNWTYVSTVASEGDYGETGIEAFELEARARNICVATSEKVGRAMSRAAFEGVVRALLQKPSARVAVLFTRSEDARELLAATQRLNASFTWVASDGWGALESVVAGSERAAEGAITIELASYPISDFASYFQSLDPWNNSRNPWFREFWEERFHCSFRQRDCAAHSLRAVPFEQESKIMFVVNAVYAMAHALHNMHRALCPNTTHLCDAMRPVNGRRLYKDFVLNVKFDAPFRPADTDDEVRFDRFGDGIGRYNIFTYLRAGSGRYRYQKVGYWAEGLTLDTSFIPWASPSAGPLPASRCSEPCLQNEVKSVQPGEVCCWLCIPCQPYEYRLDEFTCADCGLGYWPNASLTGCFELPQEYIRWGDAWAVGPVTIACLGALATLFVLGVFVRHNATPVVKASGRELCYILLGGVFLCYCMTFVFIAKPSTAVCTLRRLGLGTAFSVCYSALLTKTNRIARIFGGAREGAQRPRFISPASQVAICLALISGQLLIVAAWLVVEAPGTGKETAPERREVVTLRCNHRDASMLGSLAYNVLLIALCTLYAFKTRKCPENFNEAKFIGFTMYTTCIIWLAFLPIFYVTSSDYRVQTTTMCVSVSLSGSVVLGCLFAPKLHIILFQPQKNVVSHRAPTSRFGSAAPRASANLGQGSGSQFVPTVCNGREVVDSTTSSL
T1 sequence (O15303 25-877): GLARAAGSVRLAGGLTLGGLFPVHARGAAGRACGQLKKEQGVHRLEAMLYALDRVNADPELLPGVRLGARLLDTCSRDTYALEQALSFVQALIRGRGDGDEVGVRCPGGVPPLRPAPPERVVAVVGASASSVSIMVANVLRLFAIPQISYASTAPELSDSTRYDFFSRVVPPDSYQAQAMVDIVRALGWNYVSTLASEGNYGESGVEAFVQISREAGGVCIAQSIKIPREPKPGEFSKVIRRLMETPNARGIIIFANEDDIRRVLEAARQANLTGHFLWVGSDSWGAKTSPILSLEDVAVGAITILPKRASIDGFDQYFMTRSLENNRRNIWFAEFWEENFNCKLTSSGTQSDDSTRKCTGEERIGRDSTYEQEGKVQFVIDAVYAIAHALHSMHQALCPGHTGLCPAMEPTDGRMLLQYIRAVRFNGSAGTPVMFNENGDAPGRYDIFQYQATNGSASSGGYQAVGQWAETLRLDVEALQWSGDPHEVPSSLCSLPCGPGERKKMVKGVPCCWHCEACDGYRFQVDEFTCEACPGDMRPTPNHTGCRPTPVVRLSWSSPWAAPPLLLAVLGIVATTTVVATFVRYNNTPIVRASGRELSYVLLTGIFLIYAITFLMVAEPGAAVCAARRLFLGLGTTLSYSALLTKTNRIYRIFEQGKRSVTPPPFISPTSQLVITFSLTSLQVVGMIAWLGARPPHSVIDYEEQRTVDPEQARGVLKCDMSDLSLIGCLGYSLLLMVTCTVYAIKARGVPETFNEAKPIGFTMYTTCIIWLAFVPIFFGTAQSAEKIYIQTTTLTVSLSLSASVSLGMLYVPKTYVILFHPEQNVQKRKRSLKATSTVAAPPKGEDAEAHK
Sequence of human mGluR2 (Q14416 19-872): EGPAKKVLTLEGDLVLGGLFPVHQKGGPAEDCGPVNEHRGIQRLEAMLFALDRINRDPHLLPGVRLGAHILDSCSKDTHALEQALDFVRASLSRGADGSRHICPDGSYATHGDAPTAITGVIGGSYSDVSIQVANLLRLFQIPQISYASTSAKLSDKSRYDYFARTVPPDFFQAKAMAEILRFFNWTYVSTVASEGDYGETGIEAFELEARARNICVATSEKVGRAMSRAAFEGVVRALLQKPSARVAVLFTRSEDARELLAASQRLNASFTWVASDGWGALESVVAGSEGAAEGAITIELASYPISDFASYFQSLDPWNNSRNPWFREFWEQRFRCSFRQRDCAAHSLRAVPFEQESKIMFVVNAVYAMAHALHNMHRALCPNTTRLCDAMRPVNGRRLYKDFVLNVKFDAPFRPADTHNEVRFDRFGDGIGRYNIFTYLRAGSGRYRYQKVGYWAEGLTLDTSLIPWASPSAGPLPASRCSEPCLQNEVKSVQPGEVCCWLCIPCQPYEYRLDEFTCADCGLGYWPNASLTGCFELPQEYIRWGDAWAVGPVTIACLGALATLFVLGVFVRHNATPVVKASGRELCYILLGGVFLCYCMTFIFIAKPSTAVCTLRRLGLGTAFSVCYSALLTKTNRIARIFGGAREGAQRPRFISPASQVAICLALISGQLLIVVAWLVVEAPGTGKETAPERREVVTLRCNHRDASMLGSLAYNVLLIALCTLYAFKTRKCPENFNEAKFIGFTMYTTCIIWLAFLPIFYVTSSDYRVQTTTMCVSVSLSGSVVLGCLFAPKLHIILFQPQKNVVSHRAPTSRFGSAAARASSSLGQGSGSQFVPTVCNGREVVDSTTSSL

Regarding `CC1(C)CCc2cc(OC[C@@H]3Cn4ccc(=O)nc4O3)ccc21` [SAR218645, (S)-2-(1,1-dimethyl-indan-5-yloxymethyl)-2,3-dihydro-oxazolo[3,2-a]pyrimidin-7-one], the Tonic seizures in data set [1] (30 mg/kg ip) came out at 100%. The Minimal active dose in data set [1] (30, ip, OF1 mice) is more than 30 mg/kg; in data set [2] (dose-range 1–10, po, CD-1 mice) it was 3 mg/kg; in data set [7] (dose-range 0.3–3, po, Sprague-Dawley rats), 0.3 mg/kg. Besides, the “effect on DOI-induced head twitches” value in data set [2] (po, DOI 1 mg/kg ip, significant at 3 and 10 mg/kg) is given as “dose-dependently inhibited”. Moreover, in data set [3], the “effect on glutamate response” value is “leftward shift”. Moreover, in data set [4] (10 μM SAR218645), the “effect on glutamate-induced activation” value was “no effect”. Also, the “calcium response to compound alone” value in data set [4] (SAR218645 alone) is “did not elicit a calcium response”. The “inhibition of [3H]LY341495 binding by compound alone” value in data set [5] is recorded as “not inhibited”. Moreover, the “lowering of the Ki of glutamate” value in data set [5] is listed as 3.5 fold. Also, the “maximal binding, glutamate in the presence of SAR218645” value in data set [5] (Fig. 5B) came out at 90%. In addition, the “effect on response to EC10 glutamate” value in data set [6] (EC10 concentration (100 nM) of glutamate) was “enhanced sensitivity to glutamate”. For the same molecule, in data set [6] (absence of glutamate), the “intrinsic agonism (compound alone)” value was “no effect per se”. Moreover, the “effect on maximal response to glutamate” value in data set [6] (increasing concentrations of SAR218645) is “no significant increase”. Further, the “enhancement of glutamate potency (leftward shift of glutamate concentration-response curve)” value in data set [6] (increasing concentrations of SAR218645, HEK293 rat mGluR2/Gα16) is “approximately 25 fold”. Also, the “effect on amphetamine-disrupted auditory gating (S2/S1 ratio)” value in data set [7] (0.3 and 3 mg/kg po, amphetamine 3 mg/kg) is “attenuated amphetamine-induced disrupted gating”.

Values taken from PMC5062470, “The mGluR2 positive allosteric modulator, SAR218645, improves memory and attention deficits in translational models of cognitive symptoms associated with schizophrenia” (Scientific Reports, 2016).
